Each block holds one compound with its values, some of them ahead of it.
Legend:
PgP = target: T1, PgP (Homo sapiens, UniProt P08183); test: Cellular transwell monolayer efflux assay in MDCK cells transfected with TREx-PgP; type: cell-based
T1 construct: expressed in transfected cells; host or cells: MDCK cells
Description: A third type of efflux transporter assay is the cellular transwell monolayer efflux assay. […] The cells form a polarized monolayer. The transwell dishes have apical and basolateral chambers that are separated by the filter membrane on which the polarized monolayer is situated. Assays are performed by placing a test compound in either the apical or basolateral chamber, followed by sampling the opposite chamber after a predetermined period of time such as 60-120 minutes and measuring the amount of the test compound. The test compound can be measured by methods such as radiolabel detection or LC-MS-MS analysis. Assays are performed in the presence and absence of an efflux transporter inhibitor or competitor. Efflux transporter inhibitors or competitors increase apical to basolateral transport and decrease basolateral to apical transport of compounds that are efflux transporter substrates. Apparent permeability (Papp) of test compounds is measured. […] Test compounds that generate ratios between 1.5 and 2.0 require additional testing to determine if they are efflux transporter substrates.
MDCK cells transfected with the tetracycline-inducible TREx-PgP expression vector were seeded on polycarbonate filter membranes in transwell dishes and grown for 3-5 days, yielding a polarized monolayer with tight junctions between cells. […] The left set of bars depicts apical to basolateral transport, while the right set of bars depicts basolateral to apical transport.

OATPB [1] = target: T2, OATPB (Homo sapiens, UniProt O94956); test: ^3H-estrone sulfate uptake into oocytes injected with OATPB cRNA; type: cell-based; parameters: expressed in transfected cells; host or cells: Xenopus oocytes injected with OATPB cRNA; details: oocytes expressing OATPB versus noninjected controls (FIG. 2)
T2 sequence (O94956 1-709): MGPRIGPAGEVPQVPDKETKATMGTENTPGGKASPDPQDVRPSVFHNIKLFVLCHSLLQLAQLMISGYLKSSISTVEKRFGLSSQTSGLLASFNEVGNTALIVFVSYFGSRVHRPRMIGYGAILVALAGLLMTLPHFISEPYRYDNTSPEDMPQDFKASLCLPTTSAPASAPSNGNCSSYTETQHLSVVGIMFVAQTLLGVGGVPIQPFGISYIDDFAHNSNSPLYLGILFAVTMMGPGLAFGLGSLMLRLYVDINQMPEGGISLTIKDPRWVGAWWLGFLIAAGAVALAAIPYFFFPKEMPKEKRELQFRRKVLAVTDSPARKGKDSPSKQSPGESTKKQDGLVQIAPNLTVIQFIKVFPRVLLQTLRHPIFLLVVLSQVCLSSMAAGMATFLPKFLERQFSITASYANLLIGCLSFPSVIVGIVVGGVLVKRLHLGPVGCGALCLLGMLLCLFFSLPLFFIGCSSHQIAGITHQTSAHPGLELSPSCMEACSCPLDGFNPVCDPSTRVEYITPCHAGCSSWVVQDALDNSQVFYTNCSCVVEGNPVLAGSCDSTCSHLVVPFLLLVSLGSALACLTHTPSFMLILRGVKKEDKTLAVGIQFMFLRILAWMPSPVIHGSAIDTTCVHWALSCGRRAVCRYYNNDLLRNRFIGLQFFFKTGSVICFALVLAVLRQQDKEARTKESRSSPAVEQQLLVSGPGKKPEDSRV

OATPB [2] = target: T2, OATPB; details: cited from earlier work
OATPB transporter = target: T3, OATPB transporter (Homo sapiens, UniProt O94956); test: Direct uptake assay in tet-induced and non-induced OATPB-HEK/TREx cells (LC-MS-MS); type: cell-based; details: 125, 250, 500 or 1000 μM, 20 minutes at room temperature, with and without tetracycline (FIG. 7)
T3 construct: expressed in transfected cells
T3 sequence (O94956 1-709): T2 sequence (O94956 1-709)
Excerpt: To increase the throughput of OATPB compound screening, a mammalian cell assay was developed using an inducible expression system. OATPB was subcloned into a plasmid that allows for inducible expression by tetracycline (TREx plasmid, Invitrogen Inc. Carlsbad Calif.). The OATPB-HEK plasmid was […] transfected into a HEK cell line engineered for tetracycline-inducible expression (HEK-TREx, Invitrogen) and stable clones were isolated by G418 selection and […] (FACS).
In order to measure whether test compounds are actively translocated across the membrane, and to determine the maximal transport rate, a direct uptake method can be used in which transport of a test compound is measured by mass spectroscopy. For direct uptake measurements using mass spectroscopy, OATPB-HEK/TREx cells can be prepared similarly to those used for competition studies (described above). […] The supernatant is analyzed by LC-MS-MS. As a negative control, uptake is measured in cells not treated with tetracycline, or by competition with another substrate such as estrone-3-sulfate or bromosulphophthalein (3 mM).
The uptake of PGFα by OATPB-HEK/TREx cells was measured as described in Example 3. […] The supernatant was analyzed by LC-MS-MS. As a negative control, uptake was measured in cells not treated with tetracycline.

[3] = 2.5 nM ^3H-vinblastine, in the presence of 250 μM verapamil versus absence (FIG. 6)

T1 sequence (P08183 whole entry): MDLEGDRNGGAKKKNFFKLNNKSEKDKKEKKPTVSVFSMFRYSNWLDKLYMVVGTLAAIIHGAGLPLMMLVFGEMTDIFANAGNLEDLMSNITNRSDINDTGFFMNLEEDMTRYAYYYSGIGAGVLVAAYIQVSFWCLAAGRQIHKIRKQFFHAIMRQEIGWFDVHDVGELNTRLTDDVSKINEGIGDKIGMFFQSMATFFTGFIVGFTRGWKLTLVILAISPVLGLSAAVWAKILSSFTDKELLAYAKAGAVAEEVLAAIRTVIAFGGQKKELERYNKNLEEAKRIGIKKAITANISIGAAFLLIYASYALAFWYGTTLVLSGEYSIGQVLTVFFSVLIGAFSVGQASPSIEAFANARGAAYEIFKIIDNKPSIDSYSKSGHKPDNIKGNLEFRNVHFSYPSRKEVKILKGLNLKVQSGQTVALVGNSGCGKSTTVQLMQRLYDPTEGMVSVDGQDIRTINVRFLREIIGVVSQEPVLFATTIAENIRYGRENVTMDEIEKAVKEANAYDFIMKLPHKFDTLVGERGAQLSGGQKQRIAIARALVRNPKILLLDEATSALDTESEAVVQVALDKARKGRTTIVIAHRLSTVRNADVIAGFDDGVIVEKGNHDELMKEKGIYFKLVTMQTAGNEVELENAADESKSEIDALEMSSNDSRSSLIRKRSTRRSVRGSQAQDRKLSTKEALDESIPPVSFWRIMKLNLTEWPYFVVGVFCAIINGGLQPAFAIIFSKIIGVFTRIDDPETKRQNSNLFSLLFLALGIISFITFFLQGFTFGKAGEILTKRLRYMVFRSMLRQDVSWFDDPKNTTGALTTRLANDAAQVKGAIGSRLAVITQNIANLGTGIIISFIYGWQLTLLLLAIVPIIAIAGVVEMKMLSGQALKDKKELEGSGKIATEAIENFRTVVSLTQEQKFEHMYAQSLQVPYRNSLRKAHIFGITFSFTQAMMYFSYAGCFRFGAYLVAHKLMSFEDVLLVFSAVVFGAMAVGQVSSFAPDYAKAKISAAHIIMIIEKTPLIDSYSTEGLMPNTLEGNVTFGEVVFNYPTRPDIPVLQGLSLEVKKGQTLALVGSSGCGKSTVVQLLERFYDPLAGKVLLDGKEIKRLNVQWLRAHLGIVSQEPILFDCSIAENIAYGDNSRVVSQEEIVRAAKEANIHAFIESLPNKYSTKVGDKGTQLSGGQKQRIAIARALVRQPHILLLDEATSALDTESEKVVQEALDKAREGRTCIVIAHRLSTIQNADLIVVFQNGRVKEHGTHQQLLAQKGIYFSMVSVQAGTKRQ

Apical to basolateral transport (PgP; [3]): strongly increased | Basolateral to apical transport (PgP; [3]): strongly decreased | PgP substrate status (PgP; conclusion from the transwell assay with and without verapamil): is a substrate of PgP
Compound: CC[C@]1(O)C[C@@H]2CN(CCc3c([nH]c4ccccc34)[C@@](C(=O)OC)(c3cc4c(cc3OC)N(C)[C@H]3[C@@](O)(C(=O)OC)[C@H](OC(C)=O)[C@]5(CC)C=CCN6CC[C@]43[C@@H]65)C2)C1 [^3H-vinblastine]

Compound: C[C@]12CC[C@@H]3c4ccc(OS(=O)(=O)O)cc4CC[C@H]3[C@@H]1CCC2=O [Estrone-3-sulfate]
^3H-estrone-3-sulfate uptake (OATPB [1]): higher levels of ^3H-estrone-3-sulfate uptake than noninjected controls | Reported Affinity for OATPB (OATPB [2]): 0.1 mM

OATPB substrate status (OATPB transporter): is a substrate for the OATPB transporter
Compound: CCCCC[C@H](O)/C=C/[C@@H]1[C@@H](C/C=C\CCCC(=O)O)[C@@H](O)C[C@H]1O [PGFα]

Compound: O=C1OC(c2ccc(O)c(S(=O)(=O)O)c2)(c2ccc(O)c(S(=O)(=O)O)c2)c2c(Br)c(Br)c(Br)c(Br)c21 [Bromosulfophthalein]
Reported Affinity for OATPB (OATPB [2]): 0.04 mM

— patent publication US20050170393A1, “OATPB transporters expressed in blood brain barrier cells” (Xenoport, Inc., priority 2004, published 2005)
